Consider nine compounds from patent publication US20220323406A1, “METHODS AND COMPOSITIONS FOR DIFFERENTIATING STEM CELLS” (Massachusetts Institute of Technology, priority 2019, published 2022).

For experiment [1], the system named is ENR+CD organoids (ISC to Paneth cell differentiation). Briefly: Primary screen: basal (non-stimulated) lysozyme secretion LYZ.NS, 2.5-D 384-well ENR+CD organoid differentiation. The class given is cell-based, mouse. Particulars: primary screen; for Dose.FC.LYZ.NS: FC relative to plate median; for Z.LYZ.NS: standard z score. The source says: (§1) High-throughput screening.

The subject of experiment [2] is ENR+CD organoids. Briefly: Primary screen: ATP (CellTiter-Glo 3D, CTG) cell number/viability, 2.5-D 384-well ENR+CD organoids.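 As to all read-outs here: compounds given at plating and again on day 3 over a 6-day differentiation from ENR+CV stem-cell-enriched precursors, ATP measured on day 6, plate median as control.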 Particulars: primary screen; for Dose.FC.CTG: FC relative to plate median; for Z.CTG: standard z score. (In general: In ATP-based viability assays light output follows the ATP content of the culture.)
Experiment [3] concerns ENR+CD organoids (ISC to Paneth cell differentiation). Kind of experiment: Primary screen: CCh-stimulated lysozyme secretion LYZ.S, 2.5-D 384-well ENR+CD organoid differentiation. Format: cell-based, mouse. Particulars: primary screen, FC relative to plate median.
Text: as §1

Regarding `CC(NC(=O)c1ccccc1/N=C/c1c(O)ccc2ccccc12)c1ccccc1` (stereo not drawn) [Sirtinol], the Dose.FC.LYZ.NS was determined as 0.095 log2 fold change in experiment [1] (dose 0.08 uM), 0.000 log2 fold change in experiment [1] (dose 0.40 uM), 0.061 log2 fold change in experiment [1] (dose 2.00 uM) and 0.078 log2 fold change in experiment [1] (dose 10.00 uM). Moreover, the Z.LYZ.NS in experiment [1] (dose 0.08 uM) is recorded as 0.824; in experiment [1] (dose 0.40 uM) it was 0.002; in experiment [1] (dose 2.00 uM), 0.531; in experiment [1] (dose 10.00 uM) it was 0.679. Besides, the Dose.FC.CTG is reported as −0.218 log2 fold change in experiment [2] (dose 0.08 uM), 0.009 log2 fold change in experiment [2] (dose 0.40 uM), −0.120 log2 fold change in experiment [2] (dose 2.00 uM) and −0.078 log2 fold change in experiment [2] (dose 10.00 uM). Moreover, the Dose.FC.LYZ.S came to 0.077 log2 fold change in experiment [3] (dose 0.08 uM), 0.088 log2 fold change in experiment [3] (dose 0.40 uM), 0.028 log2 fold change in experiment [3] (dose 2.00 uM) and 0.026 log2 fold change in experiment [3] (dose 10.00 uM).

`Cc1cc2c(cc1CC(=O)c1sccc1S(=O)(=O)Nc1onc(C)c1Cl)OCO2` [Sitaxentan sodium]: the Dose.FC.LYZ.NS in experiment [1] (dose 0.08 uM) is 0.094 log2 fold change; in experiment [1] (dose 0.40 uM), −0.052 log2 fold change; in experiment [1] (dose 2.00 uM), 0.090 log2 fold change; in experiment [1] (dose 10.00 uM) it was −0.038 log2 fold change. Moreover, the Z.LYZ.NS in experiment [1] (dose 0.08 uM) is 0.816; in experiment [1] (dose 0.40 uM), −0.455; in experiment [1] (dose 2.00 uM), 0.782; in experiment [1] (dose 10.00 uM), −0.332. Also, the Dose.FC.CTG in experiment [2] (dose 0.08 uM) is reported as 0.095 log2 fold change; in experiment [2] (dose 0.40 uM) it was −0.200 log2 fold change; in experiment [2] (dose 2.00 uM), −0.096 log2 fold change; in experiment [2] (dose 10.00 uM) it was −0.100 log2 fold change. For the same compound, the Dose.FC.LYZ.S was −0.017 log2 fold change in experiment [3] (dose 0.08 uM), −0.028 log2 fold change in experiment [3] (dose 0.40 uM), 0.136 log2 fold change in experiment [3] (dose 2.00 uM) and −0.047 log2 fold change in experiment [3] (dose 10.00 uM).

Consider `Nc1ccc(C(=O)[O-])c(O)c1.[Na+]` [Sodium 4-Aminosalicylate], for which the Dose.FC.LYZ.NS in experiment [1] (dose 0.08 uM) is 0.080 log2 fold change; in experiment [1] (dose 0.40 uM) it was 0.041 log2 fold change; in experiment [1] (dose 2.00 uM), 0.156 log2 fold change; in experiment [1] (dose 10.00 uM), 0.091 log2 fold change. For the same compound, the Z.LYZ.NS in experiment [1] (dose 0.08 uM) is recorded as 0.695; in experiment [1] (dose 0.40 uM), 0.354; in experiment [1] (dose 2.00 uM), 1.354; in experiment [1] (dose 10.00 uM) it was 0.796. The Dose.FC.CTG in experiment [2] (dose 0.08 uM) is recorded as 0.119 log2 fold change; in experiment [2] (dose 0.40 uM), 0.204 log2 fold change; in experiment [2] (dose 2.00 uM) it was 0.038 log2 fold change; in experiment [2] (dose 10.00 uM) it was 0.247 log2 fold change. In addition, the Dose.FC.LYZ.S was found to be 0.162 log2 fold change in experiment [3] (dose 0.08 uM), 0.050 log2 fold change in experiment [3] (dose 0.40 uM), 0.099 log2 fold change in experiment [3] (dose 2.00 uM) and 0.143 log2 fold change in experiment [3] (dose 10.00 uM).

As to `CNC(=O)c1cc(Oc2ccc(NC(=O)Nc3ccc(Cl)c(C(F)(F)F)c3)cc2)ccn1` [Sorafenib], the Dose.FC.LYZ.NS is reported as 0.052 log2 fold change in experiment [1] (dose 0.08 uM), 0.060 log2 fold change in experiment [1] (dose 0.40 uM), 0.095 log2 fold change in experiment [1] (dose 2.00 uM) and −0.021 log2 fold change in experiment [1] (dose 10.00 uM). The Z.LYZ.NS in experiment [1] (dose 0.08 uM) is recorded as 0.457; in experiment [1] (dose 0.40 uM), 0.520; in experiment [1] (dose 2.00 uM), 0.830; in experiment [1] (dose 10.00 uM), −0.180. In addition, the Dose.FC.CTG in experiment [2] (dose 0.08 uM) is 0.032 log2 fold change; in experiment [2] (dose 0.40 uM), 0.165 log2 fold change; in experiment [2] (dose 2.00 uM) it was −0.206 log2 fold change. Besides, the Dose.FC.LYZ.S in experiment [3] (dose 0.08 uM) was 0.124 log2 fold change; in experiment [3] (dose 0.40 uM), 0.164 log2 fold change; in experiment [3] (dose 2.00 uM), 0.014 log2 fold change; in experiment [3] (dose 10.00 uM) it was −0.062 log2 fold change.

For the compound `CN1CCN(c2nc(C3=C(c4c[nH]c5ccccc45)C(=O)NC3=O)c3ccccc3n2)CC1` [Sotrastaurin], the Dose.FC.LYZ.NS is 0.193 log2 fold change in experiment [1] (dose 0.08 uM), −0.065 log2 fold change in experiment [1] (dose 0.40 uM), 0.014 log2 fold change in experiment [1] (dose 2.00 uM) and −0.126 log2 fold change in experiment [1] (dose 10.00 uM). In addition, the Z.LYZ.NS was 1.678 in experiment [1] (dose 0.08 uM), −0.567 in experiment [1] (dose 0.40 uM), 0.125 in experiment [1] (dose 2.00 uM) and −1.101 in experiment [1] (dose 10.00 uM). Moreover, the Dose.FC.CTG is given as 0.010 log2 fold change in experiment [2] (dose 0.08 uM), −0.120 log2 fold change in experiment [2] (dose 0.40 uM), −0.272 log2 fold change in experiment [2] (dose 2.00 uM) and −0.242 log2 fold change in experiment [2] (dose 10.00 uM). Moreover, the Dose.FC.LYZ.S in experiment [3] (dose 0.08 uM) is reported as 0.097 log2 fold change; in experiment [3] (dose 0.40 uM) it was −0.043 log2 fold change; in experiment [3] (dose 2.00 uM) it was −0.085 log2 fold change; in experiment [3] (dose 10.00 uM), −0.164 log2 fold change.

For `O=[N+]([O-])c1ccc2c(c1)S(=O)(=O)C=C2` [Stattic], the Dose.FC.LYZ.NS in experiment [1] (dose 0.08 uM) is recorded as 0.130 log2 fold change; in experiment [1] (dose 0.40 uM), 0.022 log2 fold change; in experiment [1] (dose 2.00 uM), 0.147 log2 fold change; in experiment [1] (dose 10.00 uM), −0.021 log2 fold change. Moreover, the Z.LYZ.NS was 1.131 in experiment [1] (dose 0.08 uM), 0.189 in experiment [1] (dose 0.40 uM), 1.276 in experiment [1] (dose 2.00 uM) and −0.186 in experiment [1] (dose 10.00 uM). The Dose.FC.CTG in experiment [2] (dose 0.08 uM) was −0.080 log2 fold change; in experiment [2] (dose 0.40 uM) it was −0.005 log2 fold change; in experiment [2] (dose 2.00 uM), 0.033 log2 fold change; in experiment [2] (dose 10.00 uM), −0.025 log2 fold change. Moreover, the Z.CTG is −0.191 in experiment [2] (dose 0.08 uM), −0.011 in experiment [2] (dose 0.40 uM), 0.078 in experiment [2] (dose 2.00 uM) and −0.060 in experiment [2] (dose 10.00 uM). In addition, the Dose.FC.LYZ.S in experiment [3] (dose 0.08 uM) was 0.150 log2 fold change; in experiment [3] (dose 0.40 uM), 0.033 log2 fold change; in experiment [3] (dose 2.00 uM), 0.082 log2 fold change; in experiment [3] (dose 10.00 uM) it was −0.019 log2 fold change.

For the compound `Cc1cn([C@H]2C=C[C@@H](CO)O2)c(=O)[nH]c1=O` [Stavudine (d4T)], the Dose.FC.LYZ.NS in experiment [1] (dose 0.08 uM) was 0.071 log2 fold change; in experiment [1] (dose 0.40 uM) it was 0.003 log2 fold change; in experiment [1] (dose 2.00 uM), 0.009 log2 fold change; in experiment [1] (dose 10.00 uM) it was −0.095 log2 fold change. In addition, the Z.LYZ.NS is 0.620 in experiment [1] (dose 0.08 uM), 0.027 in experiment [1] (dose 0.40 uM), 0.074 in experiment [1] (dose 2.00 uM) and −0.828 in experiment [1] (dose 10.00 uM). Further, the Dose.FC.CTG in experiment [2] (dose 0.08 uM) is listed as 0.095 log2 fold change; in experiment [2] (dose 0.40 uM), 0.147 log2 fold change; in experiment [2] (dose 2.00 uM) it was 0.075 log2 fold change; in experiment [2] (dose 10.00 uM) it was −0.075 log2 fold change. In addition, the Z.CTG in experiment [2] (dose 0.08 uM) was 0.226; in experiment [2] (dose 0.40 uM), 0.351; in experiment [2] (dose 2.00 uM), 0.179; in experiment [2] (dose 10.00 uM), −0.179. Besides, the Dose.FC.LYZ.S in experiment [3] (dose 0.08 uM) is reported as 0.134 log2 fold change; in experiment [3] (dose 0.40 uM) it was 0.001 log2 fold change; in experiment [3] (dose 2.00 uM) it was −0.003 log2 fold change; in experiment [3] (dose 10.00 uM), −0.120 log2 fold change.

With `Cc1ccc(-n2nccn2)c(C(=O)N2CCN(c3nc4cc(Cl)ccc4o3)CC[C@H]2C)c1` [Suvorexant (MK-4305)], the Dose.FC.LYZ.NS in experiment [1] (dose 0.08 uM) is listed as 0.204 log2 fold change; in experiment [1] (dose 0.40 uM) it was 0.123 log2 fold change; in experiment [1] (dose 2.00 uM), 0.123 log2 fold change; in experiment [1] (dose 10.00 uM), 0.077 log2 fold change. In addition, the Z.LYZ.NS in experiment [1] (dose 0.08 uM) is listed as 1.775; in experiment [1] (dose 0.40 uM), 1.073; in experiment [1] (dose 2.00 uM), 1.073; in experiment [1] (dose 10.00 uM), 0.670. Further, the Dose.FC.CTG in experiment [2] (dose 0.08 uM) was found to be 0.192 log2 fold change; in experiment [2] (dose 0.40 uM) it was 0.255 log2 fold change; in experiment [2] (dose 2.00 uM), 0.375 log2 fold change; in experiment [2] (dose 10.00 uM), 0.250 log2 fold change. For the same compound, the Z.CTG is listed as 0.458 in experiment [2] (dose 0.08 uM), 0.609 in experiment [2] (dose 0.40 uM), 0.895 in experiment [2] (dose 2.00 uM) and 0.597 in experiment [2] (dose 10.00 uM). The Dose.FC.LYZ.S in experiment [3] (dose 0.08 uM) is 0.186 log2 fold change; in experiment [3] (dose 0.40 uM), 0.142 log2 fold change; in experiment [3] (dose 2.00 uM), 0.101 log2 fold change; in experiment [3] (dose 10.00 uM), 0.131 log2 fold change.

Regarding `O=C(Nc1ccncc1)c1cc([N+](=O)[O-])ccc1Cl` [T0070907], the Dose.FC.LYZ.NS in experiment [1] (dose 0.08 uM) is given as 0.010 log2 fold change; in experiment [1] (dose 0.40 uM) it was −0.003 log2 fold change; in experiment [1] (dose 2.00 uM), 0.043 log2 fold change; in experiment [1] (dose 10.00 uM) it was −0.218 log2 fold change. Further, the Z.LYZ.NS is recorded as 0.084 in experiment [1] (dose 0.08 uM), −0.029 in experiment [1] (dose 0.40 uM), 0.373 in experiment [1] (dose 2.00 uM) and −1.897 in experiment [1] (dose 10.00 uM). For the same compound, the Dose.FC.CTG in experiment [2] (dose 0.08 uM) is 0.112 log2 fold change; in experiment [2] (dose 0.40 uM) it was 0.026 log2 fold change; in experiment [2] (dose 2.00 uM), 0.050 log2 fold change; in experiment [2] (dose 10.00 uM), −0.756 log2 fold change. Further, the Z.CTG in experiment [2] (dose 0.08 uM) is 0.267; in experiment [2] (dose 0.40 uM), 0.062; in experiment [2] (dose 2.00 uM), 0.119; in experiment [2] (dose 10.00 uM), −1.806. In addition, the Dose.FC.LYZ.S in experiment [3] (dose 0.08 uM) was −0.005 log2 fold change; in experiment [3] (dose 0.40 uM), −0.001 log2 fold change; in experiment [3] (dose 2.00 uM), 0.081 log2 fold change; in experiment [3] (dose 10.00 uM) it was −0.312 log2 fold change.
